In PMC12396409, “Screening and hit evaluation of a microbial metabolite library against the pathogenic Plasmodium falciparum and Toxoplasma gondii parasites” (International Journal for Parasitology: Drugs and Drug …, 2025):
Like-named read-outs stand apart in the source and are kept apart here.

How the values were obtained:
[1] = system: P. falciparum 3D7 parasites; test: P. falciparum growth inhibition assay, 2-cycle (120 h treatment), delayed-death screen and dose-response; format: cell-based, Plasmodium falciparum
[2] = system: P. falciparum 3D7 parasites; test: P. falciparum growth inhibition assay, 1-cycle (72 h treatment), SYBR DNA staining (library screen at 2 μg/mL and dose-response); format: cell-based, Plasmodium falciparum
[3] = system: T. gondii RH strain (RH-Tub-eYFP) tachyzoites; test: microbe, parasite or virus in culture; format: cell-based, Toxoplasma gondii
[4] = Plasmodium falciparum, 3D7, P. falciparum, 120 h, screen at 2 μg/mL, replicate 1, read-out: Pf_120h_%Growth_Rep1
[5] = Plasmodium falciparum, 3D7, P. falciparum, 120 h, screen at 2 μg/mL, replicate 2, read-out: Pf_120h_%Growth_Rep2
[6] = Plasmodium falciparum, 3D7, P. falciparum, 72 h, screen at 2 μg/mL, replicate 1, read-out: Pf_72h_%Growth_Rep1
[7] = Plasmodium falciparum, 3D7, P. falciparum, 72 h, screen at 2 μg/mL, replicate 2, read-out: Pf_72h_%Growth_Rep2
[8] = Toxoplasma gondii, 72 h, T. gondii, 72 h, screen at 2 μg/mL, replicate 1; read-out: Tg_72h_%Growth_Rep1
[9] = Toxoplasma gondii, 72 h, T. gondii, 72 h, screen at 2 μg/mL, replicate 2; read-out: Tg_72h_%Growth_Rep2
[10] = library screen at 2 μg/mL, 120 h, % growth, replicate 1
[11] = library screen at 2 μg/mL, 120 h, % growth, replicate 2
[12] = library screen at 2 μg/mL, 72 h, % growth, replicate 1
[13] = library screen at 2 μg/mL, 72 h, % growth, replicate 2

SMILES | activity at 2 µg/mL [1, 4] [%] | activity at 2 µg/mL [1, 5] [%] | activity at 2 µg/mL [2, 6] [%] | activity at 2 µg/mL [2, 7] [%] | Pf_120h_%Growth_Rep1 [1, 10] [%] | Pf_120h_%Growth_Rep2 [1, 11] [%] | Pf_72h_%Growth_Rep1 [2, 12] [%] | Pf_72h_%Growth_Rep2 [2, 13] [%] | Tg_72h_%Growth_Rep1 [3, 12] [%] | Tg_72h_%Growth_Rep2 [3, 13] [%] | further results
CCC[C@H]1CC2=C(C[C@@H](CC)CC3=C1C(=O)OC3=O)C(=O)OC2=O [Byssochlamic acid] | 129 | 88.1 | 89.8 | 83.3 | – | – | – | – | – | – | percent parasite growth at 2 µg/mL [3, 8]: 92.1%; percent parasite growth at 2 µg/mL [3, 9]: 94.4%
CC[C@H](C)[C@@H](OC(C)=O)[C@@H](C)C1=CC(=O)C2=C(O[C@]3(C)CC[C@H]4O[C@@H](C(C)(C)O)CC[C@]4(C)[C@H]3[C@@H]2O)C1=O [Cochlioquinone A] | 75.8 | 74.1 | 79.2 | 80.1 | – | – | – | – | – | – | percent parasite growth at 2 µg/mL ([3]; Toxoplasma gondii; T. gondii, 72 h, screen at 2 μg/mL, replicate 1; read-out: Tg_72h_%Growth_Rep1): 161%; percent parasite growth at 2 µg/mL ([3]; Toxoplasma gondii; T. gondii, 72 h, screen at 2 μg/mL, replicate 2; read-out: Tg_72h_%Growth_Rep2): 90.2%
CC[C@H]1OC(=O)C[C@@H](O)[C@H](C)[C@@H](O[C@@H]2O[C@H](C)[C@@H](O[C@H]3C[C@@](C)(O)[C@@H](O)[C@H](C)O3)[C@H](N(C)C)[C@H]2O)[C@@H](CC=O)C[C@@H](C)C(=O)/C=C/C(C)=C/[C@@H]1CO[C@@H]1O[C@H](C)[C@@H](O)[C@@H](OC)[C@H]1OC [Tylosin, reference compound] | 31.5 | 3.04 | 39.8 | 38.7 | – | – | – | – | – | – | 3) Fold change (72 h/120 h) ([1]; P. falciparum, growth at 72 h / growth at 120 h, 2 μg/mL): 2.3; activity at 2 µg/mL ([1]; Plasmodium falciparum, 3D7; P. falciparum, 2 μg/mL, 120 h; read-out: 2) Growth (%) at 120 h): 17.3%; activity at 2 µg/mL ([2]; Plasmodium falciparum, 3D7; P. falciparum, 2 μg/mL, 72 h; read-out: 1) Growth (%) at 72 h): 39.2%; percent parasite growth at 2 µg/mL [3, 8]: 29.4%; percent parasite growth at 2 µg/mL [3, 9]: 23.4%
CC(C)C[C@H](NC(=O)[C@@H](O)[C@H](N)Cc1ccccc1)C(=O)O [Bestatin] | – | – | – | – | – | – | – | – | – | – | activity at 2 µg/mL ([1]; Plasmodium falciparum, 3D7, library screen at 2 μg/mL, 120 h, % growth, replicate 1, read-out: Pf_120h_%Growth_Rep1): 3.72%; activity at 2 µg/mL ([1]; Plasmodium falciparum, 3D7, library screen at 2 μg/mL, 120 h, % growth, replicate 2, read-out: Pf_120h_%Growth_Rep2): 8.03%; activity at 2 µg/mL ([2]; Plasmodium falciparum, 3D7, library screen at 2 μg/mL, 72 h, % growth, replicate 1, read-out: Pf_72h_%Growth_Rep1): 10.9%; activity at 2 µg/mL ([2]; Plasmodium falciparum, 3D7, library screen at 2 μg/mL, 72 h, % growth, replicate 2, read-out: Pf_72h_%Growth_Rep2): 3.89%; percent parasite growth at 2 µg/mL ([3]; Toxoplasma gondii, 72 h, library screen at 2 μg/mL, 72 h, % growth, replicate 1; read-out: Tg_72h_%Growth_Rep1): 89.8%; percent parasite growth at 2 µg/mL ([3]; Toxoplasma gondii, 72 h, library screen at 2 μg/mL, 72 h, % growth, replicate 2; read-out: Tg_72h_%Growth_Rep2): 102%
COc1ccc(C[C@H](N)C(=O)N[C@H]2[C@@H](O)[C@H](n3cnc4c(N(C)C)ncnc43)O[C@@H]2CO)cc1 [Puromycin] | – | – | – | – | – | – | – | – | – | – | activity at 2 µg/mL ([1]; Plasmodium falciparum, 3D7, P. falciparum, 120 h, parasite screen 2 μg/mL, % growth, replicate 1, read-out: Pf_120h_%Growth_Rep1): -0.01%; activity at 2 µg/mL ([1]; Plasmodium falciparum, 3D7, P. falciparum, 120 h, parasite screen 2 μg/mL, % growth, replicate 2, read-out: Pf_120h_%Growth_Rep2): 7.14%; activity at 2 µg/mL ([2]; Plasmodium falciparum, 3D7, P. falciparum, 72 h, parasite screen 2 μg/mL, % growth, replicate 1, read-out: Pf_72h_%Growth_Rep1): 1.82%; activity at 2 µg/mL ([2]; Plasmodium falciparum, 3D7, P. falciparum, 72 h, parasite screen 2 μg/mL, % growth, replicate 2, read-out: Pf_72h_%Growth_Rep2): 1.65%; percent parasite growth at 2 µg/mL ([3]; Toxoplasma gondii, 72 h, T. gondii, 72 h, parasite screen 2 μg/mL, % growth, replicate 1; read-out: Tg_72h_%Growth_Rep1): -0.59%; percent parasite growth at 2 µg/mL ([3]; Toxoplasma gondii, 72 h, T. gondii, 72 h, parasite screen 2 μg/mL, % growth, replicate 2; read-out: Tg_72h_%Growth_Rep2): 1.12%
CCCCCC(=O)C(CCCC)c1oc(=O)c(CCCC)c(O)c1CCCC (stereo not drawn) [Elasnin] | – | – | – | – | 85.68 | 81.51 | 87.43 | 85.83 | 103.90 | 75.71 | –
CC[C@H](C)[C@H]1O[C@]2(C=C[C@@H]1C)C[C@@H]1C[C@@H](C/C=C(\C)[C@@H](O)[C@@H](C)/C=C/C=C3\CO[C@@H]4[C@H](O)C(C)=C[C@@H](C(=O)O1)[C@]34O)O2 [Avermectin B1a aglycone] | – | – | – | – | 81.78 | 74.45 | 81.70 | 78.59 | 137.71 | 97.71 | –
COC1=C(O)c2c(O)cc(C)c3c(O)cc(O)c(c23)C1=O [Funalenone] | – | – | – | – | 97.73 | 107.04 | 89.99 | 108.10 | 131.40 | 92.93 | –
